Assay results reported in the supplement of paper PMC13380429.

How the values were obtained:
Details in all cases: 72 h
HepG2 [1] = assay: cell viability relative to DMSO; higher = less toxic
Vero E6 [2] = assay: as above
Calu-3 [3] = assay: as above
Caco-2 [4] = assay: as above
U2OS [5] = assay: as above
HepG2 [6] = assay: relative viability EC50 (midpoint between 100% and the lowest measured viability); higher = less toxic
Vero E6 [7] = assay: as above
Calu-3 [8] = assay: as above
Caco-2 [9] = assay: as above
U2OS [10] = assay: as above
HepG2 [11] = assay: drug sensitivity score (DSS) for viability; higher = more toxic; extreme values may be limits of the assay
Vero E6 [12] = assay: as above
Calu-3 [13] = assay: as above
Caco-2 [14] = assay: as above
U2OS [15] = assay: as above

| Compound | cell viability (HepG2 [1]; 1 nM) [%] | cell viability (HepG2 [1]; 10 nM) [%] | cell viability (HepG2 [1]; 100 nM) [%] | cell viability (HepG2 [1]; 1000 nM) [%] | cell viability (HepG2 [1]; 10000 nM) [%] | cell viability (Vero E6 [2]; 1 nM) [%] | cell viability (Vero E6 [2]; 10 nM) [%] | cell viability (Vero E6 [2]; 100 nM) [%] | cell viability (Vero E6 [2]; 1000 nM) [%] | cell viability (Vero E6 [2]; 10000 nM) [%] | cell viability (Calu-3 [3]; 1 nM) [%] | cell viability (Calu-3 [3]; 10 nM) [%] | cell viability (Calu-3 [3]; 100 nM) [%] | cell viability (Calu-3 [3]; 1000 nM) [%] | cell viability (Calu-3 [3]; 10000 nM) [%] | cell viability (Caco-2 [4]; 1 nM) [%] | cell viability (Caco-2 [4]; 10 nM) [%] | cell viability (Caco-2 [4]; 100 nM) [%] | cell viability (Caco-2 [4]; 1000 nM) [%] | cell viability (Caco-2 [4]; 10000 nM) [%] | cell viability (U2OS [5]; 1 nM) [%] | cell viability (U2OS [5]; 10 nM) [%] | cell viability (U2OS [5]; 100 nM) [%] | cell viability (U2OS [5]; 1000 nM) [%] | cell viability (U2OS [5]; 10000 nM) [%] | relative viability EC50 (HepG2 [6]) [µM] | relative viability EC50 (Vero E6 [7]) [µM] | relative viability EC50 (Calu-3 [8]) [µM] | relative viability EC50 (Caco-2 [9]) [µM] | relative viability EC50 (U2OS [10]) [µM] | drug sensitivity score (HepG2 [11]) | drug sensitivity score (Vero E6 [12]) | drug sensitivity score (Calu-3 [13]) | drug sensitivity score (Caco-2 [14]) | drug sensitivity score (U2OS [15]) |
| --- | --- | --- | --- | --- | --- | --- | --- | --- | --- | --- | --- | --- | --- | --- | --- | --- | --- | --- | --- | --- | --- | --- | --- | --- | --- | --- | --- | --- | --- | --- | --- | --- | --- | --- | --- |
| CCCN1CCO[C@@H]2c3cc(O)ccc3OC[C@H]21 | 106 | 104 | 100 | 92 | 105 | 99.7 | 101 | 102 | 101 | 95.7 | 102 | 110 | 95 | 105 | 90.6 | 101 | 116 | 97.8 | 109 | 102 | 102 | 106 | 97.1 | 102 | 99.7 | > 10 | > 10 | > 10 | > 10 | > 10 | 0 | 0 | 0 | 0 | 0 |
| CC[C@H](C)n1cc(C)c2c(C(=O)NCc3c(C)cc(C)[nH]c3=O)cc(-c3ccc(N4CCNCC4)nc3)cc21 | 98.7 | 97.7 | 99.1 | 99 | 87.9 | 92.3 | 99.2 | 91.6 | 88.2 | 98.7 | 96.3 | 102 | 107 | 102 | 90.9 | 93.9 | 101 | 102 | 102 | 95.1 | 97.4 | 98.2 | 98.8 | 101 | 91.7 | > 10 | > 10 | > 10 | > 10 | > 10 | 0.1 | 0 | 0 | 0 | 0 |
| COC(=O)[C@H](Cc1ccc([N+](=O)[O-])cc1)NC(=O)c1cccc2ccccc12 | 102 | 97.1 | 105 | 101 | 107 | 94.4 | 96.7 | 90.8 | 87.4 | 101 | 101 | 95.8 | 92.8 | 100 | 109 | 99.8 | 98.7 | 99.4 | 95.6 | 89 | 94.2 | 99 | 96.6 | 99.5 | 100 | > 10 | > 10 | > 10 | > 10 | > 10 | 0 | 0 | 0 | 0 | 0 |
| Cc1nc2ccccc2c(-c2ccc3c4c(ccnc24)CCO3)c1[C@H](OC(C)(C)C)C(=O)O | 103 | 84.3 | 95.2 | 94.4 | 87.1 | 111 | 99.3 | 102 | 101 | 95.2 | 88.3 | 102 | 85.5 | 109 | 105 | 109 | 98.1 | 110 | 113 | 113 | 97.6 | 97.2 | 99 | 101 | 99.1 | > 10 | > 10 | > 10 | > 10 | > 10 | 0.1 | 0 | 0 | 0 | 0 |
| Cc1sc(N)c(C(=O)c2cccc(C(F)(F)F)c2)c1C | 92.3 | 102 | 93.2 | 96.7 | 92.7 | 98.1 | 96.9 | 98 | 99.3 | 100 | 100 | 91.9 | 99.2 | 100 | 109 | 97.7 | 96.6 | 97 | 95.6 | 90.6 | 97.9 | 95.9 | 99.9 | 94.9 | 102 | > 10 | > 10 | > 10 | > 10 | > 10 | 0 | 0 | 0 | 0 | 0 |
| Fc1ccc(CN2CCC(Nc3ccc(C(F)(F)F)nn3)CC2)cc1F | 90.1 | 108 | 91.2 | 88.1 | 93.4 | 90.3 | 101 | 97.4 | 98.5 | 104 | 112 | 97.6 | 86.9 | 91.7 | 107 | 100 | 95.8 | 101 | 94.7 | 94.1 | 101 | 95.5 | 95.6 | 102 | 101 | > 10 | > 10 | > 10 | > 10 | > 10 | 0.8 | 0 | 0 | 0 | 0 |
